# Experimental data reported in PMC9395446, “First-in-human phase 1/1b study to evaluate sitravatinib in patients with advanced solid tumors” (Investigational New Drugs, 2022).
# Assay: Safety in phase 1/1b study (DLTs, TRAEs, TEAEs; CTCAE v4.03)
# Assay type: in vivo, human
# Source text: Safety assessments included evaluation of DLTs, AEs, physical examinations, vital sign measurements, electrocardiogram recordings and laboratory tests.
# A DLT was defined as a grade ≥ 4 hematologic abnormality lasting ≥ 4 days; grade 3 thrombocytopenia with clinically significant bleeding; febrile neutropenia; clinically significant grade ≥ 3 non-hematologic AEs not related to underlying malignancy; intolerable grade 2 AEs; or toxicity resulting in an inability to deliver 80% of the dose during the first treatment cycle.
# The safety population included all patients who received ≥ 1 dose of sitravatinib. […] The PK evaluable population included all patients with sufficient concentration-time data for PK parameter evaluation. The modified intent-to-treat (mITT) population included all phase 1b patients who received ≥ 1 dose of study drug.
smiles,measurement,setting,value
"COCCNCc1ccc(-c2cc3nccc(Oc4ccc(NC(=O)C5(C(=O)Nc6ccc(F)cc6)CC5)cc4F)c3s2)nc1 [sitravatinib, Sitravatinib]","Hypophosphatemia TEAE, grade ≥3",150 mg phase 1b,9 (9.1) n (%)
same,"Hypothyroidism TEAE, any grade",150 mg phase 1b,22 (22.2) n (%)
same,"Hypothyroidism TEAE, grade ≥3",150 mg phase 1b,0 n (%)
same,"Hypothyroidism TRAE, any grade",150 mg phase 1b,16 (16.2) n (%)
same,"Hypothyroidism TRAE, grade ≥3",150 mg phase 1b,0 n (%)
same,"Infections and infestations TEAE, any grade",150 mg phase 1b,40 (40.4) n (%)
same,"Infections and infestations TEAE, grade ≥3",150 mg phase 1b,12 (12.1) n (%)
same,"Injury, poisoning, procedural complications TEAE, any grade",150 mg phase 1b,20 (20.2) n (%)
same,"Injury, poisoning, procedural complications TEAE, grade ≥3",150 mg phase 1b,2 (2.0) n (%)
same,"Investigations TEAE, any grade",150 mg phase 1b,66 (66.7) n (%)
same,"Investigations TEAE, grade ≥3",150 mg phase 1b,23 (23.2) n (%)
same,"Lipase increased TEAE, any grade",150 mg phase 1b,15 (15.2) n (%)
same,"Lipase increased TEAE, grade ≥3",150 mg phase 1b,10 (10.1) n (%)
same,"Metabolism and nutrition disorders TEAE, any grade",150 mg phase 1b,71 (71.7) n (%)
same,"Metabolism and nutrition disorders TEAE, grade ≥3",150 mg phase 1b,26 (26.3) n (%)
same,"Musculoskeletal and connective tissue disorders TEAE, any grade",150 mg phase 1b,56 (56.6) n (%)
same,"Musculoskeletal and connective tissue disorders TEAE, grade ≥3",150 mg phase 1b,8 (8.1) n (%)
same,"Nausea TEAE, any grade",150 mg phase 1b,49 (49.5) n (%)
same,"Nausea TEAE, grade ≥3",150 mg phase 1b,7 (7.1) n (%)
same,"Nausea TRAE, any grade",150 mg phase 1b,38 (38.4) n (%)
same,"Nausea TRAE, grade ≥3",150 mg phase 1b,5 (5.1) n (%)
same,"Neoplasms benign, malignant, unspecified TEAE, any grade",150 mg phase 1b,10 (10.1) n (%)
same,"Neoplasms benign, malignant, unspecified TEAE, grade ≥3",150 mg phase 1b,8 (8.1) n (%)
same,"Nervous system disorders TEAE, any grade",150 mg phase 1b,50 (50.5) n (%)
same,"Nervous system disorders TEAE, grade ≥3",150 mg phase 1b,5 (5.1) n (%)
same,"PPE syndrome TEAE, any grade",150 mg phase 1b,23 (23.2) n (%)
same,"PPE syndrome TEAE, grade ≥3",150 mg phase 1b,4 (4.0) n (%)
same,"PPE syndrome TRAE, any grade",150 mg phase 1b,22 (22.2) n (%)
same,"PPE syndrome TRAE, grade ≥3",150 mg phase 1b,4 (4.0) n (%)
same,"Pain in extremity TEAE, any grade",150 mg phase 1b,15 (15.2) n (%)
same,"Pain in extremity TEAE, grade ≥3",150 mg phase 1b,2 (2.0) n (%)
same,"Proteinuria TEAE, any grade",150 mg phase 1b,11 (11.1) n (%)
same,"Proteinuria TEAE, grade ≥3",150 mg phase 1b,0 n (%)
same,"Proteinuria TRAE, any grade",150 mg phase 1b,9 (9.1) n (%)
same,"Proteinuria TRAE, grade ≥3",150 mg phase 1b,0 n (%)
same,"Psychiatric disorders TEAE, any grade",150 mg phase 1b,25 (25.3) n (%)
same,"Psychiatric disorders TEAE, grade ≥3",150 mg phase 1b,1 (1.0) n (%)
same,"Rash TEAE, any grade",150 mg phase 1b,12 (12.1) n (%)
same,"Rash TEAE, grade ≥3",150 mg phase 1b,0 n (%)
same,"Rash TRAE, any grade",150 mg phase 1b,11 (11.1) n (%)
same,"Rash TRAE, grade ≥3",150 mg phase 1b,0 n (%)
same,"Renal and urinary disorders TEAE, any grade",150 mg phase 1b,23 (23.2) n (%)
same,"Renal and urinary disorders TEAE, grade ≥3",150 mg phase 1b,1 (1.0) n (%)
same,"Respiratory, thoracic and mediastinal disorders TEAE, any grade",150 mg phase 1b,65 (65.7) n (%)
same,"Respiratory, thoracic and mediastinal disorders TEAE, grade ≥3",150 mg phase 1b,14 (14.1) n (%)
same,Serious TEAE,150 mg phase 1b,49 (49.5) n (%)
same,Serious TRAE,150 mg phase 1b,22 (22.2) n (%)
same,"Skin and subcutaneous tissue disorders TEAE, any grade",150 mg phase 1b,55 (55.6) n (%)
same,"Skin and subcutaneous tissue disorders TEAE, grade ≥3",150 mg phase 1b,6 (6.1) n (%)
same,"Stomatitis TEAE, any grade",150 mg phase 1b,14 (14.1) n (%)
same,"Stomatitis TEAE, grade ≥3",150 mg phase 1b,1 (1.0) n (%)
same,"Stomatitis TRAE, any grade",150 mg phase 1b,14 (14.1) n (%)
same,"Stomatitis TRAE, grade ≥3",150 mg phase 1b,1 (1.0) n (%)
same,TEAE grade ≥3,150 mg phase 1b,80 (80.8) n (%)
same,TEAE leading to death,150 mg phase 1b,10 (10.1) n (%)
same,TEAE leading to discontinuation,150 mg phase 1b,24 (24.2) n (%)
same,TEAE leading to treatment modification,150 mg phase 1b,74 (74.7) n (%)
same,TRAE grade ≥3,150 mg phase 1b,61 (61.6) n (%)
same,TRAE leading to death,150 mg phase 1b,1 (1.0) n (%)
same,TRAE leading to discontinuation,150 mg phase 1b,17 (17.2) n (%)
same,TRAE leading to treatment modification,150 mg phase 1b,66 (66.7) n (%)
same,"UTI TEAE, any grade",150 mg phase 1b,14 (14.1) n (%)
same,"UTI TEAE, grade ≥3",150 mg phase 1b,3 (3.0) n (%)
same,"Vascular disorders TEAE, any grade",150 mg phase 1b,61 (61.6) n (%)
same,"Vascular disorders TEAE, grade ≥3",150 mg phase 1b,32 (32.3) n (%)
same,"Vomiting TEAE, any grade",150 mg phase 1b,38 (38.4) n (%)
same,"Vomiting TEAE, grade ≥3",150 mg phase 1b,10 (10.1) n (%)
same,"Vomiting TRAE, any grade",150 mg phase 1b,31 (31.3) n (%)
same,"Vomiting TRAE, grade ≥3",150 mg phase 1b,5 (5.1) n (%)
same,"Weight decreased TEAE, any grade",150 mg phase 1b,28 (28.3) n (%)
same,"Weight decreased TEAE, grade ≥3",150 mg phase 1b,3 (3.0) n (%)
same,"Weight decreased TRAE, any grade",150 mg phase 1b,18 (18.2) n (%)
same,"Weight decreased TRAE, grade ≥3",150 mg phase 1b,2 (2.0) n (%)
same,"ALT increased TEAE, any grade",Overall,46 (23.8) n (%)
same,"ALT increased TEAE, grade ≥3",Overall,5 (2.6) n (%)
same,"ALT increased TRAE, any grade",Overall,35 (18.1) n (%)
same,"ALT increased TRAE, grade ≥3",Overall,3 (1.6) n (%)
same,"AST increased TEAE, any grade",Overall,47 (24.4) n (%)
same,"AST increased TEAE, grade ≥3",Overall,4 (2.1) n (%)
